Earlier results, collected in patent US20050014827A1, “Synergistic medicament containing flavoring agents and having an antagonistic regenerative and/or protagonist decontamination effect” (priority 2000, published 2005).

Legend:
HBV = conditions: 70% isopropyl alcohol; 10 min; room temperature; serum dried onto plastic surface
reverse transcriptase = conditions: 19% ethanol
HTLV-III/LAV/HIV = conditions: 50% ethanol; 23° C.; 10 min; with and without additional protein loading

SMILES: CC(C)O [isopropyl alcohol]
- inactivation of 10^6 HBV doses infectious towards chimpanzees (HBV): inactivated

SMILES: CCO [ethanol]
- detection of viral reverse transcriptase (reverse transcriptase): can no longer be detected
- infectiousness of the virus (HTLV-III/LAV/HIV): destroys the infectiousness
